Laboratory results from US20060276464A1, “Diarylsulfone sulfonamides and use thereof” (Wyeth, priority 2005, published 2006).
“And” between values parts separate entries of the source, which are not always exact repeats. Identical values can stand only once. Like-named read-outs stand apart in the source and are kept apart here.

Legend:
SFRP-1 [1] = biological target: T1, SFRP-1 (Homo sapiens, UniProt Q8N474); test: Fluorescence polarization binding assay (competitive displacement of a probe compound from SFRP-1); conditions: fluorescence anisotropy, 45 nM SFRP-1, 20 nM probe;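 also: test compound competes with a fluorescent probe held by SFRP-1, seen as a drop in probe anisotropy after incubation in darkness, with anisotropy as function of rising compound dose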
T1 sequence (Q8N474 32-314): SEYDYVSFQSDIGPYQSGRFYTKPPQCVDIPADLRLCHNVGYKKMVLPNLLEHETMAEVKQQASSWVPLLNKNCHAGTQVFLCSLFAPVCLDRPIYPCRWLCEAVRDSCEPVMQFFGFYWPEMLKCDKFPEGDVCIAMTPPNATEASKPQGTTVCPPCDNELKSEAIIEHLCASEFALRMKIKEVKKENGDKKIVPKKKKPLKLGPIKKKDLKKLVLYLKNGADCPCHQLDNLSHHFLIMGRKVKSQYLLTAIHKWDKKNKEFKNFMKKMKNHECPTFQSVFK

SFRP-1 [2] = biological target: T1, SFRP-1; test: Cell-based assay for in vitro measurement of SFRP-1/SARP2 antagonist activity (U2OS cells co-transfected with 16x TCF-tk-Luciferase reporter, Wnt and hSFRP-1); conditions: U2OS;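 also: U2OS cells co-transfected with a TCF-tk luciferase reporter, a Wnt vector, hSFRP-1 or empty vector and CMV-βgal, luciferase luminescence read in cell lysates alongside βgal activity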
[3] = read-out: Fold Induction with SFRP-1, Conc 15 μM, single dose, luciferase reporter, fold induction over SFRP-1 control, cells with SFRP-1
[4] = read-out: Fold Induction without SFRP-1, Conc 15 μM, single dose, luciferase reporter, cells without SFRP-1 (specificity control)

IC50 (SFRP-1 [1])	fold induction at 15 µM (SFRP-1 [2]; [3])	fold induction at 15 µM (SFRP-1 [2]; [4])	SMILES	fold induction at 15 µM (SFRP-1 [2]; read-out: Fold Induction with SFRP-1)	fold induction at 15 µM (SFRP-1 [2]; read-out: Fold Induction without SFRP-1)
2 µM and 4 µM	2.5	1.1	CC(C)c1ccc(S(=O)(=O)c2ccc(N(C)C)cc2)cc1S(=O)(=O)NCC1CCOCC1 [Example 545, 5-{[4-(dimethylamino)phenyl]sulfonyl}-2-isopropyl-N-(tetrahydro-2H-pyran-4-ylmethyl)benzenesulfonamide]	–	–
1 µM and 2.5 µM	3.7	1.3	CC(C)c1ccc(S(=O)(=O)c2ccc(N3CCN(C)CC3)cc2)cc1S(=O)(=O)NC1CCOCC1 [Example 547, 2-isopropyl-5-{[4-(4-methylpiperazin-1-yl)phenyl]sulfonyl}-N-(tetrahydro-2H-pyran-4-yl)benzenesulfonamide]	–	–
2.2 µM	2.5	1.2	CC(C)c1ccc(S(=O)(=O)c2ccc(N3CCN(C)CC3)cc2)cc1S(=O)(=O)NCC1CCOCC1 [Example 548, 2-isopropyl-5-{[4-(4-methylpiperazin-1-yl)phenyl]sulfonyl}-N-(tetrahydro-2H-pyran-4-ylmethyl)benzenesulfonamide]	–	–
1.6 µM and 2.9 µM	3.6	1.5	CC(C)c1ccc(S(=O)(=O)c2ccc(N3CCN(C)CC3)cc2)cc1S(=O)(=O)NCCC1CCOCC1 [Example 549, 2-isopropyl-5-{[4-(4-methylpiperazin-1-yl)phenyl]sulfonyl}-N-[2-(tetrahydro-2H-pyran-4-yl)ethyl]benzenesulfonamide]	–	–
1.3 µM	2.9	1.1	CCCc1ccc(S(=O)(=O)c2ccccc2)cc1S(=O)(=O)NCCc1ccccc1 [Example 550, N-(2-phenylethyl)-5-(phenylsulfonyl)-2-propylbenzenesulfonamide]	–	–
1.2 µM	2.3	1	CCCc1ccc(S(=O)(=O)c2ccc(F)cc2)cc1S(=O)(=O)NCCc1ccccc1 [Example 559, 5-[(4-fluorophenyl)sulfonyl]-N-(2-phenylethyl)-2-propylbenzenesulfonamide]	–	–
1.4 µM	2.3	0.9	CCCc1ccc(S(=O)(=O)c2ccc(F)cc2)cc1S(=O)(=O)NCC1CCOCC1 [Example 561, 5-[(4-Fluorophenyl)sulfonyl]-2-propyl-N-(tetrahydro-2H-pyran-4-ylmethyl)benzenesulfonamide]	–	–
3 µM	2.8	1.2	CCCc1ccc(S(=O)(=O)c2ccc(F)cc2)cc1S(=O)(=O)NC1CCCC1 [Example 563, N-Cyclopentyl-5-[(4-fluorophenyl)sulfonyl]-2-propylbenzenesulfonamide]	–	–
0.5 µM	4	1.2	CCCc1ccc(S(=O)(=O)c2ccc(F)cc2)cc1S(=O)(=O)NCCCn1ccnc1 [Example 565, 5-[(4-Fluorophenyl)sulfonyl]-N-[3-(1H-imidazol-1-yl)propyl]-2-propylbenzenesulfonamide]	–	–
0.6 µM	2.1	1.1	CC(C)c1ccc(S(=O)(=O)c2ccc(F)cc2)cc1S(=O)(=O)NC1CCN(C(=O)N(C)C)CC1 [Example 573, 4-[({5-[(4-fluorophenyl)sulfonyl]-2-isopropylphenyl}sulfonyl)amino]-N,N-dimethylpiperidine-1-carboxamide]	–	–

The remaining lines, values behind:

SMILES	IC50 (SFRP-1 [1])	fold induction at 15 µM (SFRP-1 [2]; [3])	fold induction at 15 µM (SFRP-1 [2]; [4])	fold induction at 15 µM (SFRP-1 [2]; read-out: Fold Induction with SFRP-1)	fold induction at 15 µM (SFRP-1 [2]; read-out: Fold Induction without SFRP-1)
CC(C)c1ccc(S(=O)(=O)c2ccc(N(C)C)cc2)cc1S(=O)(=O)NC1CCOCC1 [Example 544, 5-{[4-(dimethylamino)phenyl]sulfonyl}-2-isopropyl-N-(tetrahydro-2H-pyran-4-yl)benzenesulfonamide]	0.8 µM and 1.7 µM	2.7	1.2	–	–
CC(C)c1ccc(S(=O)(=O)c2ccc(N(C)C)cc2)cc1S(=O)(=O)NCCC1CCOCC1 [Example 546, 5-{[4-(dimethylamino)phenyl]sulfonyl}-2-isopropyl-N-[2-(tetrahydro-2H-pyran-4-yl)ethyl]benzenesulfonamide]	1.5 µM and 2.6 µM	2.2	1.2	–	–
CCCc1ccc(S(=O)(=O)c2ccccc2)cc1S(=O)(=O)NCC1CCOCC1 [Example 552, 5-(Phenylsulfonyl)-2-propyl-N-(tetrahydro-2H-pyran-4-ylmethyl)benzenesulfonamide]	1.2 µM	2.4	1.2	–	–
CCCc1ccc(S(=O)(=O)c2ccccc2)cc1S(=O)(=O)NCCC1CCOCC1 [Example 553, 5-(Phenylsulfonyl)-2-propyl-N-[2-(tetrahydro-2H-pyran-4-yl)ethyl]benzenesulfonamide]	3 µM	2.5	1.1	–	–
CCCc1ccc(S(=O)(=O)c2ccccc2)cc1S(=O)(=O)NC1CCCC1 [Example 554, N-Cyclopentyl-5-(phenylsulfonyl)-2-propylbenzenesulfonamide]	1.7 µM	2.6	1.1	–	–
CCCc1ccc(S(=O)(=O)c2ccc(F)cc2)cc1S(=O)(=O)NCCC1CCOCC1 [Example 562, 5-[(4-Fluorophenyl)sulfonyl]-2-propyl-N-[2-(tetrahydro-2H-pyran-4-yl)ethyl]benzenesulfonamide]	1.6 µM	3.3	1.2	–	–
CNc1ccc(S(=O)(=O)c2ccc(C(C)C)c(S(=O)(=O)NC3CCNCC3)c2)cc1 [Example 568, 2-isopropyl-5-{[4-(methylamino)phenyl]sulfonyl}-N-piperidin-4-ylbenzenesulfonamide]	0.5 µM	3.8	1.1	–	–
Cc1nn(C)c(Cl)c1S(=O)(=O)c1ccc(C(C)C)c(S(=O)(=O)NC2CCOCC2)c1 [Example 569, 5-[(5-chloro-1,3-dimethyl-1H-pyrazol-4-yl)sulfonyl]-2-isopropyl-N-(tetrahydro-2H-pyran-4-yl)benzenesulfonamide]	1.5 µM	–	–	3.8	1.1
CC(C)c1ccc(S(=O)(=O)c2ccc(F)cc2)cc1S(=O)(=O)NC1CCN(C(=O)N2CCOCC2)CC1 [Example 572, 5-[(4-fluorophenyl)sulfonyl]-2-isopropyl-N-[1-(morpholin-4-ylcarbonyl)piperidin-4-yl]benzenesulfonamide]	0.5 µM	1.7	1	–	–
Cc1ccc(S(=O)(=O)c2ccc(F)cc2)cc1S(=O)(=O)NC1CCN(Cc2ccccc2)CC1 [Example 574, N-(1-benzylpiperidin-4-yl)-5-[(4-fluorophenyl)sulfonyl]-2-methylbenzenesulfonamide]	6 µM	2.1	1.2	–	–
CC(C)c1ccc([S+]([O-])c2ccccc2)cc1S(=O)(=O)NCCc1ccccn1 (stereo not drawn) [Example 575, 2-isopropyl-5-(phenylsulfinyl)-N-(2-pyridin-2-ylethyl)benzenesulfonamide]	1.8 µM	2.6	1.1	–	–
Cc1c(Br)cccc1S(=O)(=O)c1ccc(C(C)C)c(S(=O)(=O)NCCc2ccccn2)c1 [Example 577, 5-[(3-bromo-2-methylphenyl)sulfonyl]-2-isopropyl-N-(2-pyridin-2-ylethyl)benzenesulfonamide]	0.7 µM	1.9	1.2	–	–
